Measurements from US20250368628A1, “METHODS AND COMPOUNDS FOR MODULATING INHERITED GENETIC DISEASES” (Design Therapeutics, Inc., priority 2022, published 2025).
Read-outs that look alike come from different tables or passages of the source.

Key:
[1] = system: Myotonic Dystrophy 1 affected patient fibroblasts (Coriel GM04602; 1600 CTG repeats); assay: DM1 foci reduction assay (EC50 assay; CAG10-Cy3 FISH, foci per nucleus); type: cell-based
Procedure, shortened: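 Foci per nucleus counted by 20× imaging of 4 areas per well, after overnight FISH with 5 nM CAG10-Cy3 and DAPI staining of fixed, permeabilized cells. DM1 fibroblasts (GM04602, 1600 CTG) were dosed 48 h at 37 °C, 8 points, 3-fold dilutions, 3 μM top concentration.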

F35T cells = assay: Foci reduction in FECD (CAG10-Cy3 FISH, foci per nucleus); type: cell-based
Procedure, shortened: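 Foci per nucleus were counted by imaging after overnight CAG10-Cy3 FISH at 37 °C (30% formamide, 2×SSC) with DAPI counterstain, on PFA-fixed, ethanol-permeabilized F35T cells. The cells, seeded at 5000 per well in supplemented Opti-MEM, had received 8-point compound dilutions for 48 h at 37 °C.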

[2] = Homo sapiens, Fibroblast; DM1 patient fibroblasts, 48 h treatment, foci per nucleus; read-out: DM1 EC50, 48 h
[3] = F35T cells, 48 h treatment, foci per nucleus; read-out: FECD EC50, 48 h

| Structure (SMILES) | EC50 [1, 2] | EC50 (F35T cells; [3]) | EC50 ([1]; Homo sapiens, Fibroblast; DM1 patient fibroblasts, foci per nucleus, 48 h treatment; read-out: DM1 EC50, 48 h) | EC50 (F35T cells; F35T cells, foci per nucleus, 48 h treatment; read-out: FECD EC50, 48 h) |
| --- | --- | --- | --- | --- |
| Cn1cc(NC(=O)c2nc(NC(=O)CCNC(=O)c3cc(NC(=O)c4nccn4C)cn3C)cn2C)cc1C(=O)NCCCC(=O)Nc1cn(C)c(C(=O)NCCC(=O)Nc2cc(C(=O)Nc3cn(C)c(C(=O)NCCC(=O)N[C@@H](CCCNC(=N)N)C(=O)N[C@@H](CCCNC(=N)N)C(=O)N[C@@H](CCCNC(=N)N)C(=O)N[C@@H](CCCNC(=N)N)C(=O)NCCCCN=[N+]=[N-])n3)n(C)c2)n1 [Compound B-151] | > 1000 nM | 100 to 500 nM |  |  |
| Cn1cc(NC(=O)c2nc(NC(=O)CCNC(=O)c3cc(NC(=O)c4nccn4C)cn3C)cn2C)cc1C(=O)NCCCC(=O)Nc1cn(C)c(C(=O)NCCC(=O)Nc2cc(C(=O)Nc3cn(C)c(C(=O)NCCCCN=[N+]=[N-])n3)n(C)c2)n1 [Compound B-203] | < 100 nM | < 100 nM |  |  |
| Cn1cc(NC(=O)c2nc(NC(=O)CCNC(=O)c3cc(NC(=O)c4nccn4C)cn3C)cn2C)cc1C(=O)NCCCC(=O)Nc1cn(C)c(C(=O)NCCC(=O)Nc2cc(C(=O)Nc3cn(C)c(C(=O)NCCC#N)n3)n(C)c2)n1 [Compound B-377] | 100 to 500 nM | < 100 nM |  |  |
| CCCNC(=O)CCNC(=O)c1nc(NC(=O)c2cc(NC(=O)CCNC(=O)c3nc(NC(=O)CCCNC(=O)c4cc(NC(=O)c5nc(NC(=O)CCNC(=O)c6cc(NC(=O)c7nccn7C)cn6C)cn5C)cn4CCCN)cn3C)cn2C)cn1C [Compound B-272] | 100 to 500 nM | < 100 nM |  |  |
| Cn1cc(NC(=O)c2nc(NC(=O)CCNC(=O)c3cc(NC(=O)c4nccn4C)cn3C)cn2C)cc1C(=O)NCCCC(=O)Nc1cn(C)c(C(=O)NCCC(=O)Nc2cc(C(=O)Nc3cn(C)c(C(=O)NCCC(=O)NCCOCCOCCOCCN4CCN(C5CCN(c6ccc([N+](=O)[O-])cc6)CC5)CC4)n3)n(C)c2)n1 [Compound B-25] | 500 to 1000 nM | > 1000 nM |  |  |
| CCCNC(=O)CCNC(=O)c1nc(NC(=O)c2cc(NC(=O)CCNC(=O)c3nc(NC(=O)CCCNC(=O)c4cc(NC(=O)c5nc(NC(=O)CCNC(=O)c6cc(NC(=O)c7nccn7C)cn6C)cn5C)cn4C(C)C)cn3C)cn2C)cn1C [Compound B-319] | 100 to 500 nM | < 100 nM |  |  |
| CCCNC(=O)CCNC(=O)c1nc(NC(=O)c2cc(NC(=O)CCNC(=O)c3nc(NC(=O)CCCNC(=O)c4cc(NC(=O)c5nc(NC(=O)CCNC(=O)c6cc(NC(=O)c7nccn7C)cn6C)cn5C)cn4CCCCCN=[N+]=[N-])cn3C)cn2C)cn1C [Compound B-285] | < 100 nM | < 100 nM |  |  |
| CCCNC(=O)CCNC(=O)c1nc(NC(=O)c2cc(NC(=O)CCNC(=O)c3nc(NC(=O)CCCNC(=O)c4cc(NC(=O)c5nc(NC(=O)CCNC(=O)c6cc(NC(=O)c7nccn7C)cn6C)cn5C)cn4CCCCN)cn3C)cn2C)cn1C [Compound B-279] | < 100 nM | < 100 nM |  |  |
| CN(CCCNC(=O)c1cccc(C(=O)OC(C)(C)C)c1)CCCNC(=O)c1nc(NC(=O)c2cc(NC(=O)CCNC(=O)c3nc(NC(=O)CCCNC(=O)c4cc(NC(=O)c5nc(NC(=O)CCNC(=O)c6cc(NC(=O)c7nccn7C)cn6C)cn5C)cn4CCCCCCN=[N+]=[N-])cn3C)cn2C)cn1C [Compound B-365] | < 100 nM | 100 to 500 nM |  |  |
| CC(=O)NCCCCCCn1cc(NC(=O)c2nc(NC(=O)CCNC(=O)c3cc(NC(=O)c4nccn4C)cn3C)cn2C)cc1C(=O)NCCCC(=O)Nc1cn(C)c(C(=O)NCCC(=O)Nc2cc(C(=O)Nc3cn(C)c(C(=O)NCCC(=O)N4CCC(C#CC#CC5CCN(C(C)=O)CC5)CC4)n3)n(C)c2)n1 [Compound B-293] | 500 to 1000 nM | 100 to 500 nM |  |  |
| COCCOCCOCCOCCN(CCCCCn1cc(NC(=O)c2nc(NC(=O)CCNC(=O)c3cc(NC(=O)c4nccn4C)cn3C)cn2C)cc1C(=O)NCCCC(=O)Nc1cn(C)c(C(=O)NCCC(=O)Nc2cc(C(=O)Nc3cn(C)c(C(=O)NCCC(=O)N4CCC(C#CC#CC5CCN(C(C)=O)CC5)CC4)n3)n(C)c2)n1)CCOCCOCCOCCOC [Compound B-257] | 100 to 500 nM | 100 to 500 nM |  |  |
| CCCNC(=O)CCNC(=O)c1nc(NC(=O)c2cc(NC(=O)CCNC(=O)c3nc(NC(=O)CCCNC(=O)c4cc(NC(=O)c5nc(NC(=O)CCNC(=O)c6cc(NC(=O)c7nccn7C)cn6C)cn5C)cn4CCN=[N+]=[N-])cn3C)cn2C)cn1C [Compound B-264] | < 100 nM | < 100 nM |  |  |
| Cn1cc(NC(=O)c2nc(NC(=O)CCNC(=O)c3cc(NC(=O)c4nccn4C)cn3C)cn2C)cc1C(=O)NCCCC(=O)Nc1cn(C)c(C(=O)NCCC(=O)Nc2cc(C(=O)Nc3cn(C)c(C(=O)NCCC(=O)NCCOCCN4CCC(C#CC#CC5CCN(C(=O)OC(C)(C)C)CC5)CC4)n3)n(C)c2)n1 [Compound B-19] | < 100 nM | 100 to 500 nM |  |  |
| CCCCCNC(=O)c1nc(NC(=O)c2cc(NC(=O)CCNC(=O)c3nc(NC(=O)CCCNC(=O)c4cc(NC(=O)c5nc(NC(=O)CCNC(=O)c6cc(NC(=O)c7nccn7C)cn6C)cn5C)cn4CCCCCCN=[N+]=[N-])cn3C)cn2C)cn1C [Compound B-232] | < 100 nM | < 100 nM |  |  |
| Cn1cc(NC(=O)c2nc(NC(=O)CCNC(=O)c3cc(NC(=O)c4nccn4C)cn3C)cn2C)cc1C(=O)NCCCC(=O)Nc1cn(C)c(C(=O)NCCC(=O)Nc2cc(C(=O)Nc3cn(C)c(C(=O)NCCC(=O)N4CC(c5cnc(CN(CCCC(=O)O)CCCC(=O)O)[nH]5)C4)n3)n(C)c2)n1 [Compound B-371] | > 1000 nM | > 1000 nM |  |  |
| COC(=O)c1cccc(C#CCNCCCNC(=O)c2nc(NC(=O)c3cc(NC(=O)CCNC(=O)c4nc(NC(=O)CCCNC(=O)c5cc(NC(=O)c6nc(NC(=O)CCNC(=O)c7cc(NC(=O)c8nccn8C)cn7C)cn6C)cn5C)cn4C)cn3C)cn2C)c1 [Compound B-361] | < 100 nM | < 100 nM |  |  |
| CN(C)CCOCCNC(=O)CCNC(=O)c1nc(NC(=O)c2cc(NC(=O)CCNC(=O)c3nc(NC(=O)CCCNC(=O)c4cc(NC(=O)c5nc(NC(=O)CCNC(=O)c6cc(NC(=O)c7nccn7C)cn6C)cn5C)cn4C)cn3C)cn2C)cn1C [Compound B-42] | 100 to 500 nM | 100 to 500 nM |  |  |
| COCCOCCOCCOCCOCCOCCOc1ccc(C#CCNCCCNC(=O)c2nc(NC(=O)c3cc(NC(=O)CCNC(=O)c4nc(NC(=O)CCCNC(=O)c5cc(NC(=O)c6nc(NC(=O)CCNC(=O)c7cc(NC(=O)c8nccn8C)cn7C)cn6C)cn5C)cn4C)cn3C)cn2C)cc1 [Compound B-412] |  |  | > 1000 nM | < 100 nM |
| CCCCCn1cc(NC(=O)c2nc(NC(=O)CCNC(=O)c3cc(NC(=O)c4nccn4C)cn3C)cn2C)cc1C(=O)NCCCC(=O)Nc1cn(C)c(C(=O)NCCC(=O)Nc2cc(C(=O)Nc3cn(C)c(C(=O)NCCC(=O)NCCC)n3)n(C)c2)n1 [Compound B-322] | < 100 nM | 100 to 500 nM |  |  |
| CC(C)CCCN1CCC(C#CC#CC2CCN(CCOCCOCCOCCNC(=O)CCNC(=O)c3nc(NC(=O)c4cc(NC(=O)CCNC(=O)c5nc(NC(=O)CCCNC(=O)c6cc(NC(=O)c7nc(NC(=O)CCNC(=O)c8cc(NC(=O)c9nccn9C)cn8C)cn7C)cn6C)cn5C)cn4C)cn3C)CC2)CC1 [Compound B-170] | 100 to 500 nM | 100 to 500 nM |  |  |
| CCCNC(=O)CCNC(=O)c1nc(NC(=O)c2cc(NC(=O)CCNC(=O)c3nc(NC(=O)CCCNC(=O)c4cc(NC(=O)c5nc(NC(=O)CCNC(=O)c6cc(NC(=O)c7nccn7C)cn6C)cn5C)cn4CCCCCNC(=O)c4ccccc4)cn3C)cn2C)cn1C [Compound B-397] | 100 to 500 nM | 100 to 500 nM |  |  |
| CCCNC(=O)CCNC(=O)c1nc(NC(=O)c2cc(NC(=O)CCNC(=O)c3nc(NC(=O)CCCNC(=O)c4cc(NC(=O)c5nc(NC(=O)CCNC(=O)c6cc(NC(=O)c7nccn7C)cn6C)cn5C)cn4C)cn3C)c[nH]2)cn1C [Compound B-63] | 100 to 500 nM | 100 to 500 nM |  |  |
| CN(CCCC#Cc1cccc(C(=O)O)c1)CCCNC(=O)c1nc(NC(=O)c2cc(NC(=O)CCNC(=O)c3nc(NC(=O)CCCNC(=O)c4cc(NC(=O)c5nc(NC(=O)CCNC(=O)c6cc(NC(=O)c7nccn7C)cn6C)cn5C)cn4C)cn3C)cn2C)cn1C [Compound B-263] | 100 to 500 nM | < 100 nM |  |  |
| Cn1cc(NC(=O)c2nc(NC(=O)CCNC(=O)c3cc(NC(=O)c4nccn4C)cn3C)cn2C)cc1C(=O)NCCCC(=O)Nc1cn(C)c(C(=O)NCCC(=O)Nc2cc(C(=O)Nc3cn(C)c(C(=O)NCCC(=O)N4CCC(N5CCNCC5)CC4)n3)n(C)c2)n1 [Compound B-31] | < 100 nM | 100 to 500 nM |  |  |
| Cn1cc(NC(=O)c2nc(NC(=O)CCNC(=O)c3cc(NC(=O)c4nccn4C)cn3C)cn2C)cc1C(=O)NCCCC(=O)Nc1cn(C)c(C(=O)NCCC(=O)Nc2cc(C(=O)Nc3cn(C)c(C(=O)NCCc4cnc(CNC(=O)OCc5ccccc5)[nH]4)n3)n(C)c2)n1 [Compound B-202] | 100 to 500 nM | < 100 nM |  |  |
| Cn1cc(NC(=O)c2nc(NC(=O)CCNC(=O)c3cc(NC(=O)c4nccn4C)cn3C)cn2C)cc1C(=O)NCCCC(=O)Nc1cn(C)c(C(=O)NCCC(=O)Nc2cc(C(=O)Nc3cn(C)c(C(=O)NCCC(=O)N4CCC(C#CC#CC5CCN(C(=O)OC(C)(C)C)CC5)CC4)n3)n(C)c2)n1 [Compound B-378, Tert-butyl 4-[4-(1-{3-[(1-methyl-4-{1-methyl-4-[3-({1-methyl-4-[4-({1-methyl-4-[1-methyl-4-(3-{[1-methyl-4-(1-methylimidazole-2-amido)pyrrol-2-yl]formamido}propanamido)imidazole-2-amido]pyrrol-2-yl}formamido)butanamido]imidazol-2-yl}formamido)propanamido]pyrrole-2-amido}imidazol-2-yl)formamido]propanoyl}piperidin-4-yl)buta-1,3-diyn-1-yl]piperidine-1-carboxylate] | > 1000 nM | 100 to 500 nM |  |  |
